Laboratory results reported in patent US12214015B2, “Use of c-type natriuretic peptide variants to treat osteoarthritis” (priority 2015, dated 2025).
Bridges are numbered along the chain shown (N, C = ends). Where no end group is shown, it is not given here.

Assays:
[1] = rat, in vivo
Description: (§1) As summarized in Table 6, groups of rats were treated with vehicle, Pro-Gly-CNP-37, or Gly-CNP-37. The dose route was intraarticular (IA) or subcutaneous (SC). The dose scheduling was either intraarticular administration three times per week (M, W, F) for 3 weeks (TIW×3W) or subcutaneous administration once daily for approximately 3 weeks (QD×3W). […] IA injections were given as a fixed dose whereas SC injections were given at a given dose per weight based on the most recently recorded body weight. For all rats, body weights were measured predose. For a 300-gram rat, the weekly IA dose regimen for the low, middle, and high levels was approximately equivalent to 15, 50, and 150 μg/kg/day, respectively.
(§2) The pharmacokinetic (PK) and pharmacodynamic (PD) properties of the CNP variants were evaluated. For the PK/PD analysis, timed blood collections were performed on 3 rats/group/time point as follows: 15, 30, 60, and 120 minutes post dosing for the IA groups and 5, 15, 30, 60, and 120 minutes post dosing for the SC groups. After blood collection, synovial lavage fluid (SLF, ˜50 μL/knee) was collected from each rat's left (normal) and right (operated) knee.
(§3) Individual plasma samples were analyzed for Pro-Gly-SNP-37 levels and mean concentration vs. time profiles were analyzed using a non-compartmental model for extravascular administration in Phoenix WinNonlin software.

in vivo = conditions: rat
Description: as §1, §2, §3

[2] = Body weight gain, late stage rat osteoarthritis study (Example 3); format: in vivo
Text: A model of late stage osteoarthritis was used to evaluate the efficacy of Pro-Gly-CNP-37 in pre-developed osteoarthritis (i.e., primary osteoarthritis). As described above in Examples 1 and 2, osteoarthritis was induced in the rear legs of rats by severing the meniscus. However, in contrast to Examples 1 and 2, the lesion pathology was allowed to progress for three weeks before IA or SC treatment with Pro-Gly-CNP-37 thereby simulating pre-existing OA (i.e., primary osteoarthritis). The overall study design is outlined in Table 9. In particular, male Lewis rats underwent a unilateral medial meniscal tear surgery on Study Day 0; administration of control vehicle or Pro-Gly-CNP-37 began on Study Day 21; and animals were euthanized at scheduled time points following the last dose on Study Day 22 (Groups 1-4) or Study Day 40 (Groups 5-11). The primary endpoints evaluated included histopathological examination of chondrocyte death/cartilage degeneration in the knee.

NPR-B = target: T1, NPR-B (Homo sapiens, UniProt P20594); experiment: NPR-B signaling studies; format: biochemical
T1 sequence (P20594 23-1047): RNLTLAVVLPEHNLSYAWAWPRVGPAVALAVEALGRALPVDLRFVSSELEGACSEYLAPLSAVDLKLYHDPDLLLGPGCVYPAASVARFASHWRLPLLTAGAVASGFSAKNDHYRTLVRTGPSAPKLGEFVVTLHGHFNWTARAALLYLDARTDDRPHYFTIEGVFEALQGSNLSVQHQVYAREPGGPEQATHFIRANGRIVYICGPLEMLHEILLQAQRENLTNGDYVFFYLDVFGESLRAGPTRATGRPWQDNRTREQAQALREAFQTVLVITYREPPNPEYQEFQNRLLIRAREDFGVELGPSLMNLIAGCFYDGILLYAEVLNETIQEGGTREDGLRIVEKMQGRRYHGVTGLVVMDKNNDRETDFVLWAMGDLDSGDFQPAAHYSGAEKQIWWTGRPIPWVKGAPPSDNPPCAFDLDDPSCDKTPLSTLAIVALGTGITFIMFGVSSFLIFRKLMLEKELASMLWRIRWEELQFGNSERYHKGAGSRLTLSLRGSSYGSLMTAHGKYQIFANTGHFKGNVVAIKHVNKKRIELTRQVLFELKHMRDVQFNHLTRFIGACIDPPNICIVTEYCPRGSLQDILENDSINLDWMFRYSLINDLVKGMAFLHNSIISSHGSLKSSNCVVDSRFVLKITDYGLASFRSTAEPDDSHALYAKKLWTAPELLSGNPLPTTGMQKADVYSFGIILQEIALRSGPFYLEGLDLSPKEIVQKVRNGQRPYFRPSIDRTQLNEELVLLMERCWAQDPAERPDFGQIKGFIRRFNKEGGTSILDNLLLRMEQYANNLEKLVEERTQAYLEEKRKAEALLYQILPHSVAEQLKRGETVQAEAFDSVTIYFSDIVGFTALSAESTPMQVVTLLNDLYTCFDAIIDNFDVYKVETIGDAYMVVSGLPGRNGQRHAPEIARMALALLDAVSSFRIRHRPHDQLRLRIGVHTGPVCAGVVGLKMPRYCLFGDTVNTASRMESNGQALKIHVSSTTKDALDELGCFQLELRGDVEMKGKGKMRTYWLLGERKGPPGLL
Text: Natural substrates of NEP are small and natriuretic peptides (about 2.2 to about 3.2 kDa) are the largest of the natural substrates. According to X-ray crystallographic analyses, the NEP active-site is buried deep inside a central cavity, effectively restricting the size of substrate molecules to no more than about 3 kDa (Oefner et al., J. Mol. Biol., 296: 341-349 (2000)).
The present disclosure encompasses CNP variants designed for improved NPR-B selectivity based on a homology-based structural model of the NPR-B/CNP complex. Combining the experimental and computational structure data of natriuretic peptides bound to the various receptors with the published functional data, CNP variants were generated that continue to bind to NPR-B, but can potentially have reduced affinity to the NPR-C clearance receptor. […] Accordingly, CNP variants were generated to replace the corresponding Gly8 residue with a larger residue (Ser, Val, Thr, or Asn) to disrupt the CNP binding to NPR-C without affecting its binding to NPR-B. Further, one or more mutations were introduced at the C-terminal end of CNP, encompassing Gly15 to Gly21, which is predicted to interact with receptor-specific residues, based on the detailed structural analyses of the receptor/peptide complexes. […]

Which exposure vs dose [1] does the source give for `CC[C@H](C)[C@@H]1NC(=O)[C@H](CCCNC(=N)N)NC(=O)[C@H](CC(=O)O)NC(=O)[C@H](CC(C)C)NC(=O)[C@H](CCCCN)NC(=O)[C@H](CC(C)C)NC(=O)CNC(=O)[C@H](Cc2ccccc2)NC(=O)[C@@H](NC(=O)CNC(=O)[C@H](CCCCN)NC(=O)[C@H](CO)NC(=O)[C@H](CC(C)C)NC(=O)CNC(=O)[C@H](CCCCN)NC(=O)[C@H](CCCCN)NC(=O)[C@H](CC(N)=O)NC(=O)[C@H](C)NC(=O)CNC(=O)[C@H](CCCCN)NC(=O)[C@H](Cc2ccc(O)cc2)NC(=O)[C@H](CCCCN)NC(=O)[C@H](CCCNC(=N)N)NC(=O)[C@H](C)NC(=O)[C@H](CC(N)=O)NC(=O)[C@@H]2CCCN2C(=O)[C@H](Cc2c[nH]cn2)NC(=O)[C@H](CCC(=O)O)NC(=O)[C@H](CCC(N)=O)NC(=O)CNC(=O)[C@@H]2CCCN2)CSSC[C@@H](C(=O)O)NC(=O)CNC(=O)[C@H](CC(C)C)NC(=O)CNC(=O)[C@H](CO)NC(=O)[C@H](CCSC)NC(=O)[C@H](CO)NC(=O)CNC1=O` [Pro-Gly-CNP-37] here?
Its exposure vs dose is “generally dose-proportional”.

What about the “appearance in systemic circulation” value ([1]; sc) of the same molecule?
Its value is “appeared rapidly in systemic circulation”.

And the CL ([1]; sc, 150 ug/kg)?
Its CL is 121 mL/min.

And the AUC(0-t) (in vivo; 10.5 ug)?
The AUC(0-t) was 28.6 ng·h/mL.

What about the Cmax (in vivo; 10.5 ug) of the same molecule?
The Cmax was 33.8 ng/mL.

What about the Tmax (in vivo; 10.5 ug) of the same molecule?
Its Tmax is 15 min.

And the clearance (in vivo; 10.5 ug)?
The clearance was 5.77 mL/min.

What about the half-life (in vivo; 10.5 ug) of the same molecule?
The half-life was 27 min.

And the AUC(0-t) (in vivo; 35.5 ug)?
Its AUC(0-t) is 99 ng·h/mL.

And the Cmax (in vivo; 35.5 ug)?
The Cmax was 110 ng/mL.

And the Tmax (in vivo; 35.5 ug)?
Its Tmax is 15 min.

What about the clearance (in vivo; 35.5 ug) of the same molecule?
Its clearance is 5.36 mL/min.

What about the half-life (in vivo; 35.5 ug) of the same molecule?
Its half-life is 34.9 min.

And the AUC(0-t) (in vivo; 105 ug)?
Its AUC(0-t) is 147 ng·h/mL.

What about the Cmax (in vivo; 105 ug) of the same molecule?
Its Cmax is 357 ng/mL.

And the Tmax (in vivo; 105 ug)?
Its Tmax is 15 min.

And the clearance (in vivo; 105 ug)?
The clearance was 9.19 mL/min.

And the half-life (in vivo; 105 ug)?
The half-life was 38.1 min.

What about the AUC(0-t) (in vivo; sc, 150 ug/kg) of the same molecule?
Its AUC(0-t) is 16.3 ng·h/mL.

And the Cmax (in vivo; sc, 150 ug/kg)?
Its Cmax is 28.4 ng/mL.

What about the Tmax (in vivo; sc, 150 ug/kg) of the same molecule?
Its Tmax is 15 min.

And the half-life (in vivo; sc, 150 ug/kg)?
Its half-life is 23.8 min.

What about the body weight gain ([2]; 105 μg IA vs IA vehicle) of the same molecule?
The body weight gain was “significantly reduced”.

And the body weight gain ([2]; 150 μg/kg SC vs SC vehicle)?
Its body weight gain is “significantly reduced”.

And the “body weight change (FIG. 27)” value ([2]; treated animals, IA and SC)?
Its value is “reduced body weight change”.

For “CFGLKLDRIGSMSGLGC (disulfide 1-17 (inferred)) [CNP-17]”, which “binding and activation of NPR-B compared with wtCNP-22” value (NPR-B) is on record?
The value was “can still bind and activate NPR-B similarly”.

For “DLRVDTKSRAAWARLLQEHPNARKYKGANKKGLSKGCFGLKLDRIGSMSGLGC (ends and bridges not checked; cysteine pairing not given here) [CNP-53]”, which “binding and activation of NPR-B compared with wtCNP-22” value (NPR-B) is on record?
The value was “can still bind and activate NPR-B similarly”.
